Experimental data published in patent US11078181B2, “Diaryl pyrazole compound and formulation for controlling harmful organisms” (Nippon Soda Co., Ltd., priority 2016, dated 2021).

What was measured:
Format in all cases: in vivo
Nilaparvata lugens = assay: Efficacy test against Nilaparvata lugens (rice seedling dip); conditions: 168 h, rice seedlings soaked, second-instar larvae, 7 days after inoculation, read-out: insect mortality rate
Method: (§1) 5 parts of the compound of the present invention, 93.6 parts of dimethylformamide and 1.4 parts of polyoxyethylene alkyl aryl ether were mixed and dissolved to prepare Emulsion (I) including 5% of an active ingredient.
(§2) An insect mortality rate and a controlling rate were calculated by the numerical equations shown below. Insect mortality rate(%)={(Number of dead insects)/(Number of sample insects)}×100 Controlling rate={1−(Nt)/(Nc)}×100 • wherein • Nt: number of parasites in spray-treated area; and • Nc: number of parasites in non-treated area
Emulsion (I) was diluted with water so that the concentration of the compound of the present invention was 125 ppm. Rice seedlings were soaked in the diluted liquid for 30 seconds, and subjected to air-drying. Subsequently, the rice seedlings were placed in plastic cases, followed by inoculating 5 second-instar larvae of Nilaparvata lugens. The plastic cases were placed in a thermostatic chamber at a temperature of 25° C. and humidity of 65%. Mortality was investigated 7 days after inoculation, and the insect mortality rate was calculated. The test was performed twice.

Plutella xylostella = assay: Efficacy test against Plutella xylostella (cabbage leaf dip); conditions: foliar, 72 h, cabbage leaves soaked, second-instar larvae, 3 days after inoculation, read-out: insect mortality rate
Method: as §1, §2
Emulsion (I) was diluted with water so that the concentration of the compound of the present invention was 125 ppm. Cabbage leaves were soaked in the diluted liquid for 30 seconds. Subsequently, the cabbage leaves were put on Petri dishes, followed by inoculating 5 second-instar larvae of Plutella xylostella. The Petri dishes were placed in a thermostatic chamber at a temperature of 25° C. and humidity of 60%. Mortality was investigated 3 days after inoculation, and the insect mortality rate was calculated. The test was performed twice.

[1] = test system: first-instar larvae of Culex pipiens molestus; assay: Efficacy test against Culex pipiens molestus (larvae in chemical liquid); conditions: 24 h, first-instar larvae in 100 mL chemical liquid, after one day, read-out: insect mortality rate
Method: as §1, §2
Emulsion (I) was diluted with water so that the concentration of the compound of the present invention was 10 ppm, to prepare a chemical liquid for testing. 20 first-instar larvae of Culex pipiens molestus were released in 100 mL of the chemical liquid. After one day, the number of dead insects was counted, and the insect mortality rate was calculated. The test was performed twice.

Aphis gossypii = assay: Efficacy test against Aphis gossypii (cucumber seedling spray); conditions: 96 h, sprayed on cucumber seedlings, nymphs, 4 days after spraying, read-out: insect mortality rate
Method: as §1, §2
Emulsion (I) was diluted with water so that the concentration of the compound of the present invention was 125 ppm. Cucumbers were raised in No. 3 pots and the first leaves were inoculated with nymphs of Aphis gossypii. The diluted emulsion mentioned above was sprayed onto the cucumber seedlings. The aforementioned cucumber seedlings were then placed in a thermostatic chamber with a temperature of 25° C. and humidity of 60%. Mortality was investigated 4 days after spraying was carried out, and the insect mortality rate of Aphis gossypii was calculated. The test was performed twice.

[2] = test system: adult Phyllotreta striolata; assay: Efficacy test against Phyllotreta striolata (bok-choi seedling spray); conditions: 168 h, sprayed on bok-choi seedlings, adults, 7 days after inoculation, read-out: insect mortality rate
Method: as §1, §2
Emulsion (I) was diluted with water so that the concentration of the compound of the present invention was 125 ppm, to prepare a diluted liquid for testing. The aforementioned diluted liquid was sprayed on bok-choi seedlings (7th major leaf-development period) planted in No. 3 pots. After the bok-choi seedlings were subjected to air-drying, the seedlings were placed in plastic cups, followed by inoculating 10 adult Phyllotreta striolata. […] Mortality was investigated 7 days after inoculation, and the insect mortality rate was calculated. […]
Emulsion (I) was diluted with water so that the concentration of the compound of the present invention was 8 ppm, to prepare a diluted liquid for testing. […] Mortality was investigated 7 days after inoculation, and the insect mortality rate was calculated. […]

Aphis craccivora = assay: Efficacy test against Aphis craccivora (black-eyed pea spray); conditions: in Vigna unguiculata, 96 h, sprayed on black-eyed pea plants, nymphs, 4 days after spraying, read-out: insect mortality rate
Method: as §1, §2
Black-eyed pea plants were raised in No. 3 pots and the primary leaves were inoculated with nymphs of Aphis craccivora. Emulsion (I) was diluted with water so that the concentration of the compound of the present invention was 125 ppm. Subsequently, the aforementioned diluted liquid was sprayed on the black-eyed pea plants on which the nymphs of Aphis craccivora were parasitic. The aforementioned black-eyed pea plants were then placed in a thermostatic chamber with a temperature of 25° C. and humidity of 60%. Mortality was investigated 4 days after spraying was carried out, and the insect mortality rate of Aphis craccivora was calculated. The test was performed twice.

CCS(=O)(=O)c1ccc(-n2cncn2)nc1-n1ncc(-c2ccc(OC(F)(F)F)cc2)c1C [1-1, 3-(ethylsulfonyl)-2-(5-methyl-4-(4-(trifluoromethoxy)phenyl)-1H-pyrazol-1-yl)-6-(1H-1,2,4-triazol-1-yl)pyridine]
≥ 80%: mortality at 125 ppm (Nilaparvata lugens) | mortality at 125 ppm (Plutella xylostella) | mortality at 125 ppm (Aphis gossypii) | mortality at 8 ppm ([2]; 8 ppm) | mortality at 125 ppm ([2]; 125 ppm) | mortality at 125 ppm (Aphis craccivora)
100%: mortality at 10 ppm [1]
